Measurements: the METLIN SMRT retention time set (Domingo-Almenara et al. 2019)

Test: gradient 5% acetonitrile 3 min, to 50% in 2 min, to 85% in 15 min, held 3 min, 100 µL/min
Details: column: Zorbax Extend-C18 2.1 x 50 mm; eluents: water / acetonitrile, 0.1% formic acid
Method in brief: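 Data were gathered over 3 months by HPLC coupled to a quadrupole time-of-flight mass spectrometer, operated in positive and negative ionization mode. Mixtures of ~100 pure standards ran on a Zorbax Extend-C18 column (2.1 × 50 mm, 1.8 μm) at 100 μL/min, with water and acetonitrile each containing 0.1% formic acid and dead and dwell volumes of 40 μL and 900 μL. Retention time was read from adduct peaks picked by computer and checked manually.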

Point of comparison: O=C(Nc1ccc(-c2nc(-c3ccccc3)co2)cc1)c1cccs1, RP-LC retention time 1100 s. Against it:
- Cc1ccc(NC(=O)N2CCCC2c2nc(-c3ccccc3C)no2)c(Cl)c1 (stereo unspecified) — lower, 610 s
- CC(C)c1cccc(NS(=O)(=O)c2cc3n(c2)CCCNC3=O)c1 — lower, 723 s
- CCC(=O)N1CCc2cc(N3CC(C(=O)NCc4ccc(F)cc4)CC3=O)ccc21 (stereo unspecified) — lower, 725 s
- CCc1nc2cc(-c3noc(-c4ccsc4)n3)ccc2o1 — the same, 1100 s
- O=C(NCc1cccnc1)c1ccc(-c2ccc(N3CCSCC3)nc2)cc1 — lower, 582 s
- Cc1cccc(-c2nc(Cn3nnc(C(=O)NCc4ccc(C(C)C)cc4)c3C)c(C)o2)c1 — higher, 1310 s
- CCn1nccc1C(=O)N1CCc2c(-c3ccc(OC)cc3)cccc2[C@H]1C — lower, 1040 s
- Cc1ccc(CNC(=O)C2(C)CCN(C(=O)Nc3ccc(C)cc3Cl)CC2)cc1 — lower, 956 s
- CCN(Cc1ccccc1)C(=O)Cn1c(N2CCOCC2)nc(C)cc1=O — lower, 673 s
- CCn1ccc2sc(C)c(C(=O)NCCC(C)C)c2c1=O — lower, 806 s
- CC(C)NC(=O)c1ccc(-c2nc3cc(NS(=O)(=O)c4cc(F)cc(F)c4)ccc3n2C)cc1 — lower, 718 s
- CCN1CCn2cc(S(=O)(=O)Nc3ccc(F)cc3F)cc2C1=O — lower, 727 s
- O=C(NCC1CCCO1)c1ccccc1OCc1nc(-c2ccccc2)no1 (stereo unspecified) — lower, 898 s
- CCCCn1cc(S(=O)(=O)Nc2cc(F)ccc2C)c2cccnc21 — lower, 995 s
- Clc1ccc(Cl)c(-c2ccc(CNC3CC3)o2)c1 — lower, 698 s
- O=C(NCCCN1CCN(Cc2ccccc2)CC1)c1cn2c3c(ccc(Cl)c3c1=O)OCC2 — lower, 634 s
- O=C(Cc1ccc(F)cc1)N1CCCC1c1nc(-c2ccc(F)cc2)no1 (stereo unspecified) — lower, 1010 s
- CCc1ccc(C2=C(C)C(N3CCCN(C(=O)CCOC)CC3)=NS2(=O)=O)cc1 — lower, 795 s
- CC1=C(C(=O)Nc2cccc(Cl)c2C)C2(CCCCCC2)OC1=O — lower, 1090 s
- CC(C)Cn1cc(CCNC(=O)c2ccccc2C(F)(F)F)c2cccnc21 — lower, 854 s
- CCOc1ccccc1-c1noc(Cn2c(=O)n(C(C)CC)c(=O)c3ccccc32)n1 (stereo unspecified) — higher, 1140 s
- Cc1ccc(Cl)cc1NC(=O)Cn1ncc2c(c1=O)N(CC1CC1)C(=O)CS2 — lower, 860 s
- COc1ccc(N2CCN(c3cc(SCC(=O)NCc4ccccc4OC)ncn3)CC2)cc1 — lower, 888 s
- CC(=O)N1c2ccc(S(=O)(=O)N3CCCC3)cc2CC1C(=O)NCCN1CCCCC1 (stereo unspecified) — lower, 592 s
- Cc1ccc2ncn3c(=O)n(CC(=O)Nc4ccc(C(C)C)cc4)nc3c2c1 — lower, 754 s
- Cc1nc(SCC(=O)Nc2ccc(Cl)cc2C(F)(F)F)cc(-c2ccccn2)n1 — lower, 1080 s
- CCCn1ccc2sc(C)c(C(=O)NCc3ccc(Cl)cc3)c2c1=O — lower, 985 s
- COc1ccccc1-c1ccc(=O)n(Cc2nc(-c3ccc(F)cc3)no2)n1 — lower, 995 s
- Cc1cc2c(cc1S(=O)(=O)N1CCCC1C(=O)Nc1ccccc1)OC(C)C(=O)N2 (stereo unspecified) — lower, 777 s
- Cc1nnc2n1-c1sccc1C(c1ccccc1)=NC2 — lower, 712 s
- O=C(Nc1ccc2c(c1)N(S(=O)(=O)c1ccccc1)CCC2)c1ccc2c(c1)OCO2 — lower, 834 s
- CSc1ccc(CNC(=O)CN2CCc3[nH]c4c(C)cc(C)cc4c(=O)c3C2)cc1 — lower, 904 s
- O=c1n(Cc2cccc(Cl)c2)nc2c(S(=O)(=O)N3CCCCC3)cccn12 — lower, 935 s
- CCOc1ccc2ncc(S(=O)(=O)c3ccc(OC)cc3)c(N3CCOCC3)c2c1 — lower, 919 s
- Cc1ccc(-c2csc(NC(=O)CCCc3nc(-c4ccc(Cl)cc4)no3)n2)cc1 — higher, 1240 s
- COc1cc2c(cc1OC)C(C(=O)N1CCOCC1)C(c1ccc(SC)cc1)N(C)C2=O (stereo unspecified) — lower, 726 s
- CN(C)C(CNC(=O)C(=O)Nc1ccc(OC(F)(F)F)cc1)c1ccccc1Cl (stereo unspecified) — lower, 622 s
- CCC(=O)NCCc1csc(C2CCN(C(=O)CC3CCCCC3)CC2)n1 — lower, 765 s
- O=C(NCC1CC1)C1CCN(c2nc3ccsc3c(=O)n2Cc2ccccc2)CC1 — lower, 814 s
- Cc1cc(=O)c2c(C)ccc(C)c2[nH]1 — lower, 677 s
- Cc1cccc(CS(=O)(=O)N2CC(c3nc(Cc4ccccc4)no3)C2)c1 — lower, 977 s
- Cc1cccc(CNC(=O)Cn2c(C)cc(-c3nnc(C4CCC4)o3)c2C)c1 — lower, 883 s
- Cc1ccccc1-c1noc(-c2cccnc2N2CCN(C)CC2)n1 — lower, 670 s
- O=C(CN1C(=O)CCCc2cc(S(=O)(=O)N3CCCCCC3)ccc21)Nc1cccc(F)c1 — lower, 988 s
- O=C1NCCCCCCN(C(=O)c2cccs2)[C@H]2CCC[C@@H]12 — lower, 745 s
- COc1cccc(N2CCN(C(=O)c3cn(-c4ccc(NC(=O)C5CC5)cn4)cn3)CC2)c1 — lower, 743 s
- O=C(c1cc(C2CC2)[nH]n1)N1CC(n2cc(COc3ccc(F)cc3)nn2)C1 — lower, 735 s
- Cc1ccc(NC(=O)CN2CCc3ccccc3C2C(=O)N2CCCCC2)cc1Cl (stereo unspecified) — lower, 1030 s
- Cc1cc(C)c2c(N3CCSCC3)nc(C(=O)NCC3CCCO3)nc2n1 (stereo unspecified) — lower, 624 s
- CCC(=O)NCc1nc2c(n1C)CN(C(=O)c1cccc(Br)c1)CC2 — lower, 591 s
- CC(C)n1c(N2CCCN(C(=O)COc3ccc(Cl)cc3)CC2)cc(=O)n(C(C)C)c1=O — lower, 914 s
- O=C1CC(c2ccco2)Cc2[nH]c(=O)c(C(=O)Nc3ccccc3C(F)(F)F)cc21 (stereo unspecified) — lower, 746 s
- O=C(CCC1CCN(c2cc(NC3CC3)ncn2)CC1)NCc1cccs1 — lower, 633 s
- Cc1ccccc1S(=O)(=O)N1CCC2(CC1)CC(OCC1CC1)CCO2 (stereo unspecified) — lower, 1080 s
- O=C(NC1CC1)c1cccc2c1CCN2C(=O)C1CC1 — lower, 649 s
- O=C(NCCC1CCN(C(=O)Nc2ccc(F)cc2F)CC1)C1CCC1 — lower, 720 s
- COc1ccc(C2C(C(=O)NCc3ccccc3OC)c3cc(OC)c(OC)cc3C(=O)N2C)cc1 (stereo unspecified) — lower, 802 s
- CC(C)CNC(=O)N1CCCC(CCc2nnc(-c3cnccn3)o2)C1 (stereo unspecified) — lower, 697 s
- CC1=CC(=O)CC(C)(C)C1(O)/C=C/C(C)=C\C(=O)O (stereo unspecified) — lower, 683 s
- Cc1cccc(N2C(=O)c3cccnc3C2CC(=O)N2CCN(c3ccccn3)CC2)c1 (stereo unspecified) — lower, 562 s
- CN(C)S(=O)(=O)c1ccc2c(c1)N(CC(=O)Nc1cccc(F)c1)C(=O)C1CCCCN21 (stereo unspecified) — lower, 928 s
- N#Cc1cccc(-c2cn3c(n2)N(C(=O)c2cnccn2)CCC3)c1 — lower, 687 s
- O=C(NCCc1cnc[nH]1)c1cc(-c2cccnc2)nc2ccccc12 — lower, 566 s
- Cc1cc(Cl)ccc1NS(=O)(=O)c1ccc(-c2c(C)noc2C)cc1 — lower, 1030 s
- O=C(N1CCC(c2nc(-c3ccccc3)no2)C1)C1(c2ccccc2)CC1 (stereo unspecified) — lower, 994 s
